Measured values as given in article PMC9635925, “Biological screening of a unique drug library targeting MRGPRX2” (Frontiers in Immunology, 2022).
Positions count from the first letter of the chain named. Counter-ions that a name gives are not always drawn.

How the values were obtained:
[1] = molecular target: T1, MRGPRX2-WT (wild-type MRGPRX2 receptor) (Homo sapiens, UniProt Q96LB1); assay: Primary HTS, Ca2+ mobilization (fluorescence ratio, B-score) in HEK293-Gα15 cells stably expressing wild-type MRGPRX2; type: cell-based; conditions: 10 μM compound
T1 construct: expressed in transfected cells
T1 sequence (Q96LB1 1-330): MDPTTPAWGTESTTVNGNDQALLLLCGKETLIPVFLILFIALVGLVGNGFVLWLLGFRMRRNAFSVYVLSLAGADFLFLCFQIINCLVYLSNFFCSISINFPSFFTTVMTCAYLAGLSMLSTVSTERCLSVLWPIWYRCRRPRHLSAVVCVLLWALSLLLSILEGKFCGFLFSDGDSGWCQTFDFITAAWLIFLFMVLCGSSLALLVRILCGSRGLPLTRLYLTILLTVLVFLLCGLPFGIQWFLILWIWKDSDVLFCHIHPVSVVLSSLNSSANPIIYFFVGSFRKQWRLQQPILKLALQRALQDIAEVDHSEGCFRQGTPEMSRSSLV

[2] = molecular target: T2, MRGPRX2-MUT (MRGPRX2 N62S mutation) (Homo sapiens, UniProt Q96LB1, N62S); assay: Primary HTS, Ca2+ mobilization (fluorescence ratio, B-score) in HEK293-Gα15 cells stably expressing the MRGPRX2 N62S mutation; type: cell-based; conditions: for B-scores (MUT): 10 μM compound, MRGPRX2-MUT (N62S) cells; for Change of B-scores (%): 10 μM
T2 construct: expressed in transfected cells
T2 sequence (Q96LB1 1-330 N62S): T1 sequence (Q96LB1 1-330) with N62S

LAD2 cells = assay: β-hexosaminidase release (degranulation) in human mast cell line LAD2; type: cell-based
Description: (§1) The human mast cell line LAD2 (Laboratory of Allergic Diseases-2) was obtained from Dean Metcalfe, MD (National Institute of Allergy and Infectious Diseases, National Institutes of Health, Bethesda, MD). […] We included two negative and two positive controls for the validation experiments in LAD2 cells. […] Additionally, vehicle control (without any drugs) was also included as the negative control. Drugs were dissolved in PBS (vehicle) and six concentrations were tested for each drug; the known MRGPRX2 agonist C48/80 (10 μg/mL) and Tween 20 (1%), which is a known mast cell activator via MRGPRX2 independent mechanism, were used as positive controls. Two-way ANOVA with the Sidak multiple comparisons test was used for statistical analysis (n=6).
(§2) We further investigated whether these newly discovered candidate drugs can serve as agonists for MRGPRX2-dependent activation of MCs.

[3] = tested on: MRGPRX2-deficient LAD2 cells; assay: β-hexosaminidase release in MRGPRX2-deficient LAD2 cells (CRISPR/Cas9); type: cell-based, human; conditions: two-way ANOVA, P< 0.0001
Description: as §1, §2

[4] = MRGPRX2-MUT in comparison to MRGPRX2-WT cells, Supplementary Table 1
[5] = MRGPRX2-MUT in comparison to MRGPRX2-WT cells, Table 1
[6] = MRGPRX2-MUT versus MRGPRX2-WT cells, Supplementary Table 2

B-scores (WT) ([1]; Supplementary Table 1) | B-scores (WT) ([1]; Supplementary Table 2) | B-scores (WT) ([1]; Table 1) | B-scores (MUT) ([2]; Supplementary Table 1) | B-scores (MUT) ([2]; Supplementary Table 2) | B-scores (MUT) ([2]; Table 1) | Change of B-scores (%) [2, 4] | Change of B-scores (%) [2, 5] | Change of B-scores (%) [2, 6] | Compound | β-hexosaminidase release (LAD2 cells; at 500 μM) | degranulation (β-hexosaminidase release) in LAD2 cells lacking MRGPRX2 [3] | β-hexosaminidase release (LAD2 cells; at 125 μM)
41.41 | 41.41 | 41.41 | 1.21 | 1.21 | 1.21 | -97.07% | -97.07% | -97.07% | CN(C)CCC(c1ccc(Br)cc1)c1ccccn1 (centres unmarked) [Brompheniramine Maleate] | 56.43% | decreased to the level of vehicle controls | –
– | – | – | – | – | – | – | – | – | Cc1ccc(NC(=O)c2ccc(CN3CCN(C)CC3)cc2)cc1Nc1nccc(-c2cccnc2)n1 [Imatinib Mesylate] | – | decreased to the level of vehicle controls | 58.42%
– | 7.86 | – | – | -0.79 | – | – | – | -110.02% | CCn1cc(C(=O)O)c(=O)c2cc(F)c(N3CCN(C)CC3)cc21.CS(=O)(=O)O [Pefloxacine Mesylate] | – | – | –
37.48 | – | – | 0.43 | – | – | -98.84% | – | – | N=C(N)c1ccc(OCCCCCOc2ccc(C(=N)N)cc2)cc1 [Pentamidine Isethionate] | – | – | –
24.12 | – | – | 8.70 | – | – | -63.92% | – | – | N=C(N)c1ccc(OCCCCCOc2ccc(C(=N)N)cc2)cc1 [Pentamidine] | – | – | –
39.73 | – | – | 1.29 | – | – | -96.75% | – | – | CN1CCC(=C2c3ccccc3CCc3sccc32)CC1.O=C(O)CC(O)C(=O)O [Pizotyline Malate] | – | – | –
23.47 | 23.47 | 23.47 | 8.13 | 8.13 | 8.13 | -65.37% | -65.37% | -65.37% | CN(C)CCCN1c2ccccc2Sc2ccccc21 [Promazine Hydrochloride] | – | – | –
24.43 | – | 24.43 | 3.59 | – | 3.59 | -85.30% | -85.30% | – | CNCCCC1c2ccccc2C=Cc2ccccc21 [Protriptyline Hydrochloride] | – | – | –
– | 13.36 | – | – | 0.23 | – | – | – | -98.24% | COc1ccc(CN(CCN(C)C)c2ccccn2)cc1 [Pyrilamine] | – | – | –
22.18 | – | – | 31.66 | – | – | 42.73% | – | – | CCOC(=O)[C@H](CCc1ccccc1)N[C@@H](C)C(=O)N1[C@H](C(=O)O)C[C@@H]2CCC[C@@H]21 [Ramipril] | – | – | –
23.94 | – | 23.94 | 0.37 | – | 0.37 | -98.45% | -98.45% | – | CO[C@H]1/C=C/O[C@@]2(C)Oc3c(C)c(O)c4c(O)c(c(/C=N/N5CCN(C)CC5)c(O)c4c3C2=O)NC(=O)/C(C)=C\C=C\[C@H](C)[C@H](O)[C@@H](C)[C@@H](O)[C@@H](C)[C@H](OC(C)=O)[C@@H]1C [Rifampin] | – | – | –
19.85 | – | 19.85 | – | – | -0.15 | -100.76% | -100.76% | – | CN1CCN(c2c(F)cc3c(=O)c(C(=O)O)cn4c3c2SCC4)CC1.Cl [Rufloxacin Hydrochloride] | – | – | –
– | 13.61 | – | – | 0.36 | – | – | – | -97.38% | CC(C)(C)NCC(O)c1ccc(O)c(CO)c1 (centres unmarked) [Salbutamol] | – | – | –
– | 15.97 | – | – | 0 | – | – | – | -100% | O=C(O)c1cn(-c2ccc(F)cc2)c2cc(N3CCNCC3)c(F)cc2c1=O [Sarafloxacin hydrochloride] | – | – | –
– | 7.75 | – | – | 1.08 | – | – | – | -86.07% | CN1CCN(CCCN2c3ccccc3Sc3ccc(C(F)(F)F)cc32)CC1 [Stelazine] | – | – | –
– | 15.97 | – | – | 1.91 | – | – | – | -88.03% | CC(C)(C)NCC(O)c1cc(O)cc(O)c1.CC(C)(C)NCC(O)c1cc(O)cc(O)c1.O=S(=O)(O)O (centres unmarked) [Terbutaline Hemisulfate] | – | – | –
20.36 | – | 20.36 | 5.11 | – | 5.11 | -74.90% | -74.90% | – | CN1CCN(CC/C=C2/c3ccccc3Sc3ccc(S(=O)(=O)N(C)C)cc32)CC1 [Thiothixene] | – | – | –
33.23 | – | 33.23 | 1.69 | – | 1.69 | -94.91% | -94.91% | – | COc1ccc(CN(CCN(C)C)c2ncccn2)cc1 [Thonzylamine Hydrochloride] | – | – | –
– | 8.62 | – | – | 0.85 | – | – | – | -90.15% | CN(C)CCCN1c2ccccc2Sc2ccc(C(F)(F)F)cc21 [Triflupromazine Hydrochloride] | – | – | –
27.11 | – | – | 19.11 | – | – | -29.51% | – | – | CC(CN(C)C)CN1c2ccccc2Sc2ccccc21.CC(CN(C)C)CN1c2ccccc2Sc2ccccc21.O=C(O)C(O)C(O)C(=O)O (centres unmarked) [Trimeprazine Tartrate] | – | – | –
18.56 | – | – | 0.14 | – | – | -99.27% | – | – | COc1cc(C(=O)NCc2ccc(OCCN(C)C)cc2)cc(OC)c1OC [Trimethobenzamide Hydrochloride] | – | – | –
23.09 | – | 23.09 | 3.48 | – | 3.48 | -84.91% | -84.91% | – | CC(CN(C)C)CN1c2ccccc2CCc2ccccc21 (centres unmarked) [Trimipramine Maleate] | – | – | –
20.71 | – | 20.71 | 0.68 | – | 0.68 | -96.71% | -96.71% | – | Cc1ccc(/C(=C\CN2CCCC2)c2ccccn2)cc1.Cl [Triprolidine Hydrochloride] | – | – | –
20.22 | – | 20.22 | – | – | -0.17 | – | – | – | Bacitracin A | 61.94% | decreased to the level of vehicle controls | –
20.46 | – | 20.46 | 5.73 | – | 5.73 | -71.99% | -71.99% | – | Buserelin | – | – | –
37.20 | – | – | 15.06 | – | – | -59.51% | – | – | Corticotropin A (SYSMEHFRWGKPVGKKRRPVKVYPNGAEDESAEAFPLEF; Corticotropin; UniProt P01189 138-176, looked up) [Adrenocorticotropic hormone (ACTH)] | – | – | –

Compound | B-scores (WT) ([1]; Supplementary Table 1) | B-scores (WT) ([1]; Supplementary Table 2) | B-scores (WT) ([1]; Table 1) | B-scores (MUT) ([2]; Supplementary Table 1) | B-scores (MUT) ([2]; Supplementary Table 2) | B-scores (MUT) ([2]; Table 1) | Change of B-scores (%) [2, 4] | Change of B-scores (%) [2, 5] | Change of B-scores (%) [2, 6] | β-hexosaminidase release (LAD2 cells; at 500 μM) | degranulation (β-hexosaminidase release) in LAD2 cells lacking MRGPRX2 [3] | β-hexosaminidase release (LAD2 cells; at 125 μM)
C[CH2][Hg][S]c1ccccc1C(=O)[O-].[Na+] [Thimerosal] | 18.55 | – | – | 0.33 | – | – | -98.25% | – | – | – | – | –
COc1ccc(CCN(C)CCCC(C#N)(c2ccc(OC)c(OC)c2)C(C)C)cc1OC (centres unmarked) [Verapamil Hydrochloride] | – | 9.68 | – | – | 1.41 | – | – | – | -85.46% | – | – | –
COc1ccc(CCN(C)CCCC(C#N)(c2ccc(OC)c(OC)c2)C(C)C)cc1OC (centres unmarked) [Verapamil] | – | 5.44 | – | – | -1.44 | – | – | – | -126.44% | – | – | –
